1 molecule from patent US20230391727A1, “ANALOGUES OF PENTAMIDINE AND METHODS FOR TREATING INFECTIONS” (Auransa Inc., priority 2020, published 2023) can be followed below.

Type in all cases: cell-based
The subject of experiment [1] is 17 clinically relevant bacterial strains. In words: Checkerboard assays with rifampicin, summary over the panel. Particulars: compound 3 in combination of rifampicin; 17 test strains.
Source text: The 17 test strains/isolates were: (1) Serratia marcescens (ATCC 13880); (2) Salmonella typhimurium (ATCC 13311); (3) Salmonella choleraesuis (ATCC 10708); (4) Acinetobacter baumannii (ATCC BAA-1605); (5) A. baumannii (ATCC 17978); (6) A. baumannii (FDA-CDC AR-BANK#0088); (7) Citrobacter freundii (ATCC 8090); (8) Pseudomonas aeruginosa (BCCM 27647); (9) P. aeruginosa (BCCM 27648); (10) Escherichia coli (ATCC 25922); (11) E. coli (ATCC 10536); (12) Stenotrophomonas maltophilia (ATCC 13637); (13) Enterobacter cloacae (ATCC BAA-1143); (14) E. cloacae (ATCC 13047); (15) E. aerogenes (ATCC 13048); (16) Klebsiella pneumoniae (NCTC 13438); and (17) Klebsiella pneumoniae (FDA-CDC AR-BANK#0160). […]
The 17 test strains were grown on nutrient agar or tryptic soy agar (TSA) medium as below. […] The absorbance of the bacterial suspension was measured with a spectrophotometer at OD620nm, and then the suspension was adjusted to 1-2×10^8 CFU/mL in PBS. […] The actual microbial count in the assay ranged from 2˜8×10^5 CFU/mL as determined from dilution plating. […]
Assay plates were incubated and MIC endpoints were read as complete inhibition of visual growth. […]
FIC (Fraction Inhibitory Concentration) and FIC Index (FICI) values for each test condition and the average of FICI values of all pairwise combinations were calculated to determine if synergy or antagonism existed between the two substances. […]
For the next experiment, the system named is Candida parapsilosis CP3. In words: Anti-fungal MIC assay. Conditions: Lodderomyces parapsilosis. Here is the method: (§1) The first round of testing included Candida parapsilosis, Candida krusei, Paecilomyces variotii, Candida albicans, Aspergillus fumigatus, and Blastomyces dermatitidis. […] The second round of testing included Candida parapsilosis, Candida krusei, Candida albicans, Candida auris, Candida glabrata, Candida guilliermondii, and Cryptococcus neoformans.
(§2) Stock solutions of the investigational agent were prepared at concentrations 100-times the highest concentration to be tested (6400 μg/ml) using dimethyl sulfoxide. Aliquots of the stock solutions were dispensed into polystyrene vials and stored at −20° C.
(§3) The synthetic medium RPMI-1640 (with glutamine, without bicarbonate, and with phenol red) was used. The RPMI was buffered to a pH of 7.0+0.1 at 25° C. with 0.165M MOPS (3-[N-morpholino] propanesulfonic acid). Sterile U-shaped 96-well cell culture plates were used to perform the MIC assays. Dilutions of the DMSO stocks were prepared in RPMI to achieve 2× concentrations. After the dilutions of the working 2× investigational antifungal solutions were prepared, 0.1 ml of each concentration was transferred into a pre-specified column of the U-shaped 96-well cell culture plate using sterile pipettes.
(§4) Fungal isolates were grown on Sabouraud dextrose agar (yeasts) or potato flake agar (filamentous fungi) and cells were collected after an appropriate period of growth for each species being evaluated (e.g., 48-72 hours for yeasts and 7 days for filamentous fungi). The fungi were suspended in sterile distilled water, and the densities of the fungal suspension were read using a spectrophotometer and adjusted to an appropriate optical density specific for each fungal species. The fungal suspension of each isolate was then diluted in RPMI. A sufficient volume of the test inoculum was prepared to directly inoculate 0.1 ml into each test well of the 96-well cell culture plate. Final inoculum ranges were dependent on the fungal species to be tested (e.g., 0.4×103 to 5×10^3 cells/ml for yeasts and dimorphic fungi, and 0.4×104 to 5×10^4 cells/ml for filamentous fungi). Each well of the 96-well cell culture plate containing the investigational antifungal compounds (0.1 ml volume) was inoculated on the day of the assay with 0.1 ml of the fungal suspension. Growth control wells contained 0.1 ml of fungal suspension and 0.1 ml of the growth medium without antifungal agents. The media control well contained 0.2 ml of the growth medium.
(§5) The microdilution trays were incubated at 35° C. without agitation. […] One positive comparator/control was used for yeast (fluconazole) and one was used for filamentous fungi (voriconazole).

Experiment [2] concerns Aspergillus fumigatus AF3. In words: Anti-fungal MIC assay. How it is done:
as §1, §2, §3, §4, §5

Experiment [3] deals with Cryptococcus neoformans H99. In words: Anti-fungal MIC assay. Here is the method:
as §1, §2, §3, §4, §5

For another experiment, the system named is Candida albicans SC5314. Nature of the experiment: Anti-fungal MIC assay. How it is done:
as §1, §2, §3, §4, §5

Experiment [4] concerns Blastomyces dermatitidis BD3. In words: Anti-fungal MIC assay. Here is the method: as §1, §2, §3, §4, §5
Experiment [5] has as its system Blastomyces dermatitidis BD2. In words: Anti-fungal MIC assay. Here is the method:
as §1, §2, §3, §4, §5

Experiment [6] concerns Enterobacter cloacae (ATCC BAA-1143). Nature of the experiment: Checkerboard/MIC assay with rifampicin. Particulars: Enterobacter cloacae BAA-1143. The text has this: (§6) The 17 test strains/isolates were: (1) Serratia marcescens (ATCC 13880); (2) Salmonella typhimurium (ATCC 13311); (3) Salmonella choleraesuis (ATCC 10708); (4) Acinetobacter baumannii (ATCC BAA-1605); (5) A. baumannii (ATCC 17978); (6) A. baumannii (FDA-CDC AR-BANK#0088); (7) Citrobacter freundii (ATCC 8090); (8) Pseudomonas aeruginosa (BCCM 27647); (9) P. aeruginosa (BCCM 27648); (10) Escherichia coli (ATCC 25922); (11) E. coli (ATCC 10536); (12) Stenotrophomonas maltophilia (ATCC 13637); (13) Enterobacter cloacae (ATCC BAA-1143); (14) E. cloacae (ATCC 13047); (15) E. aerogenes (ATCC 13048); (16) Klebsiella pneumoniae (NCTC 13438); and (17) Klebsiella pneumoniae (FDA-CDC AR-BANK#0160). These bacterial strains were obtained from the American Type Culture Collection (ATCC, Rockville, MD, USA); Belgian Coordinated Collections of Microorganisms; The Culture Collections of Public Health England, UK; and FDA-CDC anticimrobial Resistance Isolate Bank, USA, and cryopreserved as single-use frozen working stock cultures which were stored at −80° C.
(§7) The 17 test strains were grown on nutrient agar or tryptic soy agar (TSA) medium as below. Colonies were suspended in phosphate buffered saline (PBS) pH 7.4. The absorbance of the bacterial suspension was measured with a spectrophotometer at OD620nm, and then the suspension was adjusted to 1-2×10^8 CFU/mL in PBS. The adjusted suspension was further diluted 1:500 in cation-adjusted Mueller-Hinton Broth. Each well contained approximately 5×10^5 CFU/mL. […] The testing inoculum was prepared within minutes before adding to wells of the test plate.
(§8) Compound 3 was tested in 8 points by two-fold serial titrations from 100 to 0.78 μg/mL. […] Assay plates were incubated and MIC endpoints were read as complete inhibition of visual growth. The checkerboard combination analysis was performed following the MIC testing protocol to identify potential synergistic, indifferent or antagonistic interactions. The analysis also included each test substance alone at the same concentration ranges.
(§9) FIC (Fraction Inhibitory Concentration) and FIC Index (FICI) values for each test condition and the average of FICI values of all pairwise combinations were calculated to determine if synergy or antagonism existed between the two substances. The FIC index was determined by calculating the sum of the ratios of MICs (minimum inhibitory concentrations) for both substances. […] Synergy is defined as the FICI (Σ)≤0.5; additivity or indifference are defined as the FICI (Σ)>0.5 to ≤4; antagonism is defined as the FICI (Σ)>4. The two fold of highest test article concentration was used for FIC value calculations in the circumstances where MIC values were greater than the highest test article concentration.

For experiment [7], the system named is Acinetobacter baumannii (ATCC BAA-1605). In words: Checkerboard/MIC assay with rifampicin. Particulars: Acinetobacter baumannii BAA-1605.
Source text: as §6, §7, §8, §9

A short description of experiment [8]: Anti-fungal MIC assay, summary of first round. Conditions: read-out: Isolate MIC (100%); range over isolates of the first round of testing. Here is the method:
as §1, §2
The synthetic medium RPMI-1640 (with glutamine, without bicarbonate, and with phenol red) was used. The RPMI was buffered to a pH of 7.0+0.1 at 25° C. with 0.165M MOPS (3-[N-morpholino] propanesulfonic acid). Sterile U-shaped 96-well cell culture plates were used to perform the MIC assays. […]
Fungal isolates were grown on Sabouraud dextrose agar (yeasts) or potato flake agar (filamentous fungi) and cells were collected after an appropriate period of growth for each species being evaluated (e.g., 48-72 hours for yeasts and 7 days for filamentous fungi). The fungi were suspended in sterile distilled water, and the densities of the fungal suspension were read using a spectrophotometer and adjusted to an appropriate optical density specific for each fungal species. […]

Where [9] appears, read: read-out: MIC, 50% growth inhibition.
Setting [10] is: read-out: MIC, 100% growth inhibition.
[11] abbreviates: compound 3 in combination with rifampicin.

Values after ≈ are worked out from the molar mass of the structure shown. Where two headings read alike, the source gives them in different places.

With `N=C(N)c1ccc(CC[C@H]2CCC[C@@H](CCc3ccc(C(=N)N)cc3)C2)cc1` [Compound 3, 4,4′-(2,2′-((1R,3S)-cyclohexane-1,3-diyl)bis(ethane-2,1-diyl))dibenzimidamide], in experiment [1], the “combination effect with rifampicin” value is “synergistic effects for most tested strains”. The minimal inhibitory concentration (MIC) (commonly the lowest concentration found to suppress growth) came to 2 µg/mL (≈ 5.31 µM) in the experiment with Candida parapsilosis CP3 (setting [9]); 8 µg/mL (≈ 21.2 µM) in the experiment on Candida parapsilosis CP3 (setting [10]); 32 µg/mL (≈ 85 µM) in experiment [2] (setting [9]); 64 µg/mL (≈ 170 µM) in [2] (setting [10]); 0.5 µg/mL (≈ 1.33 µM) in experiment [3] (setting [9]); 0.5 µg/mL (≈ 1.33 µM) in experiment [3] (setting [10]). Further, the minimal inhibitory concentration (MIC) is 1 µg/mL (≈ 2.66 µM) with Candida albicans SC5314 (setting [9]); 1 µg/mL (≈ 2.66 µM) with Candida albicans SC5314 (setting [10]); 4 µg/mL (≈ 10.6 µM) in experiment [4] (setting [9]); 8 µg/mL (≈ 21.2 µM) in experiment [4] (setting [10]); 2 µg/mL (≈ 5.31 µM) in [5] (setting [9]); 4 µg/mL (≈ 10.6 µM) in experiment [5] (setting [10]). In addition, the minimal inhibitory concentration (MIC) in [6] (substance alone) is 100 µg/mL; in experiment [7] (substance alone), 25 µg/mL; in experiment [8], 1 to 64 µg/mL (≈ 2.66 to 170 µM). In addition, the “Combination Result” value in experiment [6] (setting [11]) and in experiment [7] (setting [11]) was “synergy (Synergy is defined as the FICI (Σ)≤0.5)” in each case. The “FICI (Average)” value in experiment [6] (setting [11]) came out at 0.19; in experiment [7] (setting [11]), 0.31.
